Data reported in article PMC3991326, “Optimal Translational Termination Requires C4 Lysyl Hydroxylation of eRF1” (Molecular Cell, 2014).

Target: T1, Jmjd4 (Homo sapiens, UniProt Q9H9V9)
T1 construct: recombinant from E. coli, Ni-NTA purified
T1 sequence (Q9H9V9 1-417): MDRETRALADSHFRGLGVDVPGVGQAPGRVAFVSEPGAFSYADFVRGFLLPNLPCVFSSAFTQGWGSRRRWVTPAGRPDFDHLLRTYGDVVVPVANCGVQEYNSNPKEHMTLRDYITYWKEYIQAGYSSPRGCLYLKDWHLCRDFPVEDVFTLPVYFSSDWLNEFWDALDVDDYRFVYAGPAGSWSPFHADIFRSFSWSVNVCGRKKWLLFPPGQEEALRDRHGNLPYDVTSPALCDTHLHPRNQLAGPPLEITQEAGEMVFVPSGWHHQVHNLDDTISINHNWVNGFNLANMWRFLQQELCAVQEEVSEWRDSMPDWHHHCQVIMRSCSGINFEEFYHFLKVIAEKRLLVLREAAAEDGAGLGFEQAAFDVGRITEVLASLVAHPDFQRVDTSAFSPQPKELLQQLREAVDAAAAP
Assay: in vitro hydroxylation of recombinant eRF1 K63
Type: biochemical
Settings: eRF1 as prime substrate; Fe(II), 2OG; competitive with 2OG (stated for 2OG oxygenases in general)

Question: For O=C(O)CNC(=O)C(=O)O [NOG], which “in vitro hydroxylation of recombinant eRF1 K63” value is on record?
Answer: eRF1 K63 hydroxylation was significantly impaired by a 2OG competitive inhibitor (NOG, N-Oxalylglycine)
